Patent US11999700B1, “[4,4-bis(4-nitrophenyl)-2,5-dioxoimidazolidin-1-yl]acetic acid as an antimicrobial compound” (KING FAISAL UNIVERSITY, priority 2023, dated 2024)

What was measured:
Type in all cases: cell-based
Escherichia Coli = assay: Antimicrobial testing by agar dilution, E. Coli; details: after 10, 20, 40 and 60 minutes at all dilutions 1:100, 1:200, 1:400, 1:800
Experimental: (§1) The antimicrobial properties of the [4,4-bis(4-nitrophenyl)-2,5-dioxoimidazolidin-1-yl]acetic acid were studied by the method of agar dilution. Test solutions of each compound was prepared in concentration of 1% using dimethylformamide as a solvent then they are diluted in physiological solution to obtain the final experimental dilutions 1:100, 1:200, 1:400, 1:800. The effect of these substances are compared with furacillin in a controlable study. The testing microbes used were gram positive bacteria Staphylococcus Aereus, gram negative bacteria Escherichia Coli, Pseudomonas aeruginosa and Candida albicans fungi were taken.
(§2) The experiments used for this survey were meat-pentonlu agar (EPA) for cultivation of bacteria and Saburo environment for fungi. Each experiment used 1 ml of test solution on each plate 500 min. Add 2 drops of emulsified with microbes feel. All experimental samples were taken from the agar after 10, 20, 40, 60 minutes in the environment on the basis of Patrk planted. Bacteria were cultivated at a temperature of 37° C. for 1 day and the mushroom was kept in a thermostat for […] at a temperature of 28° C. in the. Then results were checked.

Candida albicans = assay: Antimicrobial testing by agar dilution, Candida albicans; details: Candida albicans fungi, after 10, 20, 40 and 60 minutes at all dilutions 1:100, 1:200, 1:400, 1:800
Experimental: as §1, §2

Staphylococcus Aereus = assay: Antimicrobial testing by agar dilution, St. Aereus; details: after 10, 20, 40 and 60 minutes at all dilutions 1:100, 1:200, 1:400, 1:800
Experimental: as §1, §2

Pseudomonas aeruginosa = assay: Antimicrobial testing by agar dilution, Ps. aeruginosa; details: after 10, 20, 40 and 60 minutes at all dilutions 1:100, 1:200, 1:400, 1:800
Experimental: as §1, §2

Measured: inhibition activity

O=C(O)CN1C(=O)NC(c2ccc([N+](=O)[O-])cc2)(c2ccc([N+](=O)[O-])cc2)C1=O [[4,4-bis(4-nitrophenyl)-2,5-dioxoimidazolidin-1-yl]acetic acid]
higher inhibition activity: Escherichia Coli | Candida albicans | Staphylococcus Aereus | Pseudomonas aeruginosa
